{"source": "patent US11622964B2", "about": "“Method for destroying cellular mechanical homeostasis and promoting regeneration and repair of tissues and organs, and use thereof” (INSTITUTE OF ZOOLOGY, CHINESE ACADEMY OF SCIENCES, priority 2018, dated 2023)", "key": {"[1]": {"tested_on": "human embryonic hepatocytes", "assay": "In vitro amplification of human embryonic hepatocytes", "assay_type": "cell-based", "details": "for cell amplification multiple: 12 days of passage culture (3 generations)", "procedure": "Resuscitation of Human Embryonic Hepatocytes: human embryonic hepatocytes are removed from a liquid nitrogen tank (aborted fetus, frozen storage date is Jan. 15, 2014, frozen stock solution is cell banker 2, frozen cell number is 2×10^7/tube), quickly placing in a 37° C. water bath; and after melting the cells are immediately inhaled into a 15 ml centrifuge tube containing 5 ml of hepatocyte medium (control group), centrifuging at 50 g, 4° C. for 5 min; the supernatant is discarded, and the cells are resuspended in 500 ul hepatocyte medium and calculated as 1.16×10^6 with a cell recovery rate of 5.8%.\nInoculation of Human Embryonic Hepatocytes: inoculation density is 1×10^5/24 well plate, adding 500 μl hepatocyte medium (control group), hepatocyte medium containing 10 μM small molecules, and hepatocyte medium containing 20 μM small molecules respectively; 24 hours after inoculating, 3 wells of cells in each group are digested respectively to count the number of the cells, then calculating the cell adherent rate. 72 hours after inoculating, 3 wells of cells in each group are digested respectively to count the number of the cells. Multiple of the change of cell number may be obtained through dividing the number of cells at 72 hours after inoculation by the number of cells at 24 hours after inoculation. A portion of the cells per well (⅖ of the cell count) are taken for RNA extraction so as to detect human hepatocyte-related gene expression.\nThe First Passage of Human Embryonic Hepatocytes: cells are respectively inoculated into a 24-well plate coated with rat tail collagen (as described above), and the inoculum density is ⅗ of the number of cells after 72 hours of primary culture; 3 duplicate wells per group. After 72 hours of cell culture, the cells are digested to count the number. Multiple of the first passage amplification may be obtained through dividing the counted number of cells by the number of cells at the time of inoculation. A portion of the cells per well (⅖ of the cell count) are taken for RNA extraction so as to detect human hepatocyte-related gene expression.\nThe Second Passage of Human Embryonic Hepatocytes: cells are respectively inoculated into a 24-well plate coated with rat tail collagen (as described above), and the inoculum density is ⅗ of the number of cells after 72 hours of the first passage culture. […] After changing the medium every 2 days and continuing to culture for 144 hours (6 days), the cells are digested and counted. Multiple of the second passage amplification may be obtained through dividing the counted number of cells by the number of cells at the time of inoculation. […]"}, "[2]": {"tested_on": "bile duct ligation-induced fibrosis", "assay": "Bile duct ligation-induced hepatic fibrosis model", "assay_type": "in vivo, mice", "procedure": "The ICR, C57Bl/6 mice used in the experiment are purchased from SPF (Beijing) Biotechnology Co., Ltd.; elbow tweezers, finger tweezers, scissors, needle holders, suture needles, suture threads are purchased from Asone Trading Co., Ltd.; antibiotics are purchased from Gibco (15240-062). 8 week-old female mice are used, and they are fasted for 24 hours before the experiment. The mice are anesthetized with 5% chloral hydrate, and intraperitoneally injected with 8 ml/kg. The mice are fixed after anesthesia, and an incision is made in the abdomen to expose the organs. The duodenum of the stomach end is found and gently pulled to find the bile duct, carefully peeling off the bile duct with tweezers, ligating the bile duct with suture thread, then adding antibiotics, and suturing to close the abdominal cavity. The mice are fasted for 12 hours after surgery. 14-20 days after surgery, the skin of the mice is observed to be yellow-green, and drug is administered to mice for treatment. The mice in the modeling group are evenly divided into two groups, and the mice of experimental group are intraperitoneally injected with (−)-blebbistatin. As for the administration method, (−)-blebbistatin is dissolved in DMSO; sequentially adding 2-5% DMSO (final concentration, volume ratio)+30% PEG400 (final concentration, volume ratio)+2% Tween 80 (final concentration, volume ratio), the mice of the control group are injected with a solvent without the small molecule but containing an equal amount of DMSO (denoted as “Con”)."}, "[3]": {"tested_on": "CCl4-induced mild hepatic fibrosis", "assay": "CCl4-induced mild hepatic fibrosis model", "assay_type": "in vivo, mice", "details": "1 mg or 3 mg per kg per day, intraperitoneal or tail vein injection, 1-2 weeks", "procedure": "The ICR, C57Bl/6 mice used in the experiment are purchased from SPF (Beijing) Biotechnology Co., Ltd., carbon tetrachloride is purchased from Aladdin Reagent (Shanghai) Co., Ltd. (C131583-1L), and corn oil is purchased from Sigma (C8267). 8-week-old female mice are selected and housed in the barrier for one week, they are randomly divided into two groups, and respectively injected with CCl4/corn oil (a volume ratio of 2:5) and corn oil. The dose of CCl4 is 0.5 ml/kg, twice a week for 4 weeks. After 4 weeks, the mice are anesthetized with 5% chloral hydrate, and part of the hepatic lobe is taken out, fixing with 4% paraformaldehyde, dehydrating and immersing in wax, then staining with Sirius Red (YY-R20384-100ML) kit for fibrosis, wherein the collagenous fibers are red, as shown in FIG. 2B. After successful identification of the modeling, the drug administration is performed by intraperitoneal injection or tail vein injection. The small molecule is dissolved in dimethyl sulfoxide at a concentration of 1 mg or 3 mg per kg per day; successfully adding 2-5% DMSO+30% propylene glycol+2% Tween 80+ddH2O, and the control group (“Control”) is abbreviated as “Con” in the figure. […]"}, "CCl4 liver damage": {"tested_on": "CCl4 liver damage", "assay": "Blood biochemistry, hepatocyte proliferation, apoptosis and liver function genes after CCl4 liver damage", "assay_type": "in vivo, mice", "procedure": "Blood biochemical analysis (fasting 12-16 hours before sampling) further confirms that myosin inhibitor (−)-blebbistatin may reduce the content of liver damage indicators such as ALT, AST and GGT, as shown in FIG. 4A. Further, Alb-crexmTmG hybrid mice are used for fibrosis modeling with CCl4, wherein GFP is expressed in mature hepatocytes of the mice. […] In summary, the myosin inhibitor (−)-blebbistatin promotes liver regeneration by inhibiting fibrosis of liver damage, promoting hepatocyte proliferation, and reducing apoptosis, thereby maintaining liver function."}}}
{"compound": "Cc1ccc2c(c1)C(=O)[C@]1(O)CCN(c3ccccc3)C1=N2", "note": "[(−)-blebbistatin]", "values": [{"measurement": "cell amplification multiple", "setting": "[1]; 20 μM Bleb medium", "result": "about 13 times"}, {"measurement": "cell amplification multiple", "setting": "[1]; 10 μm small-molecule medium", "result": "about 22.1 times"}, {"measurement": "expression of human hepatocyte-specific genes ALB and AFP (real-time quantitative PCR)", "setting": "[1]; 12 days of passage culture in 10 μM and 20 μM small molecule media", "result": "still express human hepatocyte-specific genes"}, {"measurement": "cell morphology", "setting": "[1]; after 12 days of passage culture in small molecule medium", "result": "typical hepatocyte morphology"}, {"measurement": "accumulation of collagenous fibers (Sirius Red)", "setting": "[2]; after 15 days of treatment", "result": "significantly inhibited"}, {"measurement": "proliferation of myofibroblasts (α-SMA staining)", "setting": "[2]; after 15 days of treatment", "result": "significantly inhibited"}, {"measurement": "accumulation of collagenous fibers (Sirius Red)", "setting": "[2]; after 30 days of treatment", "result": "significantly inhibits"}, {"measurement": "hepatocyte proliferation (Ki-67 staining)", "setting": "[2]; during the bile duct ligation process", "result": "promotes"}, {"measurement": "state of the mice", "setting": "[2]; intraperitoneal injection", "result": "more active and energetic"}, {"measurement": "fibrosis (Sirius red staining)", "setting": "[3]", "result": "significantly inhibits"}, {"measurement": "Alb expression in GFP-expressing hepatocytes", "setting": "CCl4 liver damage; Alb-cre x mTmG hybrid mice, CCl4 fibrosis modeling", "result": "most of the cells expressing GFP express Alb"}, {"measurement": "expression of hepatocyte-related, bile duct-related and proliferation-related genes (transcriptional level)", "setting": "CCl4 liver damage; compared with the control group", "result": "significantly maintains high level expression"}, {"measurement": "content of liver damage indicators such as ALT, AST and GGT (blood biochemical analysis)", "setting": "CCl4 liver damage; fasting 12-16 hours before sampling", "result": "reduce"}, {"measurement": "apoptosis during liver damage (TUNEL staining)", "setting": "CCl4 liver damage; mouse, in vivo", "result": "reduces"}, {"measurement": "cell proliferation after liver damage (ALB/Ki-67 staining)", "setting": "CCl4 liver damage; mouse, in vivo", "result": "significantly promotes"}]}
